Test results published in ChEMBL document CHEMBL1201862, “PubChem BioAssay data set” (2004).
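Briefly, cells in 96-well plates were exposed to five compound concentrations for 48 h, and endpoints were estimated by linear interpolation. Here, GI50 denotes the concentration required for 50% inhibition of growth.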 Active and inactive are the calls of the source. Rule as the data show it: active = GI50 up to about 1.1 µM and inactive = higher.

Columns and labels:
Assay in all cases: NCI-60 cell line screen, 48 h
[1] = tested on: NCI-H226
[2] = tested on: TK-10
[3] = tested on: HCT-116
[4] = tested on: SF-268
[5] = tested on: CAKI-1
[6] = tested on: COLO 205
[7] = tested on: PC-3
[8] = tested on: K562
[9] = tested on: OVCAR-8
[10] = tested on: SN12C
[11] = tested on: OVCAR-3
[12] = tested on: SK-MEL-2
[13] = tested on: 786-0
[14] = tested on: MOLT-4
[15] = tested on: SF-539
[16] = tested on: UACC-62
[17] = tested on: CCRF-CEM
[18] = tested on: UO-31
[19] = tested on: HL-60
[20] = tested on: RPMI-8226
[21] = tested on: IGROV-1
[22] = tested on: SNB-75
[23] = tested on: MCF7
[24] = tested on: ACHN
[25] = tested on: RXF 393
[26] = tested on: MDA-N
[27] = tested on: HT-29
[28] = tested on: A498
[29] = tested on: KM12
[30] = tested on: HOP-62
[31] = tested on: BT-549
[32] = tested on: HCT-15
[33] = tested on: T47D
[34] = tested on: M14
[35] = tested on: SNB-19
[36] = tested on: SF-295
[37] = tested on: NCI-H460
[38] = tested on: EKVX
[39] = tested on: OVCAR-5
[40] = tested on: A549
[41] = tested on: Hs-578T
[42] = tested on: NCI-H23
[43] = tested on: UACC-257
[44] = tested on: NCI/ADR-RES
[45] = tested on: DU-145
[46] = tested on: SK-MEL-5
[47] = tested on: MDA-MB-231
[48] = tested on: U-251
[49] = tested on: OVCAR-4
[50] = tested on: SW-620
[51] = tested on: HOP-92
[52] = tested on: SK-OV-3
[53] = tested on: LOX IMVI
[54] = tested on: Malme-3M
[55] = tested on: SR
[56] = tested on: HCC 2998
[57] = tested on: MDA-MB-435
[58] = tested on: SK-MEL-28

CC(=O)Nc1nc2c(=O)c3ccccc3sc2s1
GI50 [1]: > 100000 nM (inactive) | GI50 [2]: 87300 nM (inactive) | GI50 [3]: > 100000 nM (inactive) | GI50 [4]: > 100000 nM (inactive) | GI50 [5]: > 100000 nM (inactive) | GI50 [6]: > 100000 nM (inactive) | GI50 [7]: > 100000 nM (inactive) | GI50 [8]: > 100000 nM (inactive) | GI50 [9]: > 100000 nM (inactive) | GI50 [10]: > 100000 nM (inactive) | GI50 [11]: > 100000 nM (inactive) | GI50 [12]: > 100000 nM (inactive) | GI50 [13]: > 100000 nM (inactive) | GI50 [14]: > 100000 nM (inactive) | GI50 [15]: > 100000 nM (inactive) | GI50 [16]: > 100000 nM (inactive) | GI50 [17]: > 100000 nM (inactive) | GI50 [18]: > 100000 nM (inactive) | GI50 [19]: > 100000 nM (inactive) | GI50 [20]: > 100000 nM (inactive) | GI50 [21]: > 100000 nM (inactive) | GI50 [22]: > 100000 nM (inactive) | GI50 [23]: 34400 nM (inactive) | GI50 [24]: > 100000 nM (inactive) | GI50 [25]: > 100000 nM (inactive) | GI50 [26]: > 100000 nM (inactive) | GI50 [27]: > 100000 nM (inactive) | GI50 [28]: > 100000 nM (inactive) | GI50 [29]: > 100000 nM (inactive) | GI50 [30]: > 100000 nM (inactive) | GI50 [31]: > 100000 nM (inactive) | GI50 [32]: > 100000 nM | GI50 [33]: > 100000 nM (inactive) | GI50 [34]: > 100000 nM (inactive) | GI50 [35]: > 100000 nM (inactive) | GI50 [36]: > 100000 nM (inactive) | GI50 [37]: > 100000 nM (inactive) | GI50 [38]: > 100000 nM (inactive) | GI50 [39]: > 100000 nM (inactive) | GI50 [40]: > 100000 nM (inactive) | GI50 [41]: > 100000 nM (inactive) | GI50 [42]: > 100000 nM (inactive) | GI50 [43]: > 100000 nM (inactive) | GI50 [44]: > 100000 nM (inactive) | GI50 [45]: > 100000 nM (inactive) | GI50 [46]: > 100000 nM (inactive) | GI50 [47]: > 100000 nM (inactive)

COc1cccc(-c2cc(O)c3cc(OC)ccc3n2)c1
GI50 [1]: 396 nM (active) | GI50 [2]: 500 nM (active) | GI50 [3]: 239 nM (active) | GI50 [4]: 710 nM (active) | GI50 [48]: 305 nM (active) | GI50 [5]: 475 nM (active) | GI50 [6]: 201 nM (active) | GI50 [7]: 338 nM (active) | GI50 [8]: 128 nM (active) | GI50 [9]: 344 nM (active) | GI50 [10]: 685 nM (active) | GI50 [11]: 188 nM (active) | GI50 [12]: 321 nM (active) | GI50 [49]: 1710 nM (inactive) | GI50 [13]: 376 nM (active) | GI50 [14]: 311 nM (active) | GI50 [15]: 188 nM (active) | GI50 [50]: 281 nM (active) | GI50 [16]: 182 nM (active) | GI50 [17]: 195 nM (active) | GI50 [18]: 426 nM (active) | GI50 [51]: 488 nM (active) | GI50 [19]: 79.1 nM (active) | GI50 [52]: 208 nM (active) | GI50 [20]: 340 nM (active) | GI50 [21]: 483 nM (active) | GI50 [22]: 318 nM (active) | GI50 [23]: 364 nM (active) | GI50 [24]: 1740 nM (inactive) | GI50 [25]: 199 nM (active) | GI50 [26]: 47 nM (active) | GI50 [27]: 330 nM (active) | GI50 [28]: 15.8 nM (active) | GI50 [29]: 396 nM (active) | GI50 [53]: 439 nM (active) | GI50 [30]: 446 nM (active) | GI50 [31]: 392 nM (active) | GI50 [32]: 366 nM | GI50 [33]: > 10000 nM (inactive) | GI50 [34]: 235 nM (active) | GI50 [35]: 390 nM (active) | GI50 [36]: 180 nM (active) | GI50 [37]: 365 nM (active) | GI50 [38]: 920 nM (active) | GI50 [39]: 452 nM (active) | GI50 [40]: 367 nM (active) | GI50 [41]: 240 nM (active) | GI50 [42]: 320 nM (active) | GI50 [43]: 865 nM (active) | GI50 [54]: 55.3 nM (active) | GI50 [55]: 81.5 nM (active) | GI50 [44]: 173 nM (active) | GI50 [56]: 291 nM (active) | GI50 [45]: 429 nM (active) | GI50 [46]: 182 nM (active) | GI50 [47]: 368 nM (active)

Cc1c2c3cc(O)ccc3nc-2n(C)c2ccccc12
GI50 [1]: 2860 nM (inactive) | GI50 [2]: 2980 nM (inactive) | GI50 [57]: 1360 nM (inactive) | GI50 [3]: 459 nM (active) | GI50 [4]: 1620 nM (inactive) | GI50 [48]: 838 nM (active) | GI50 [7]: 1750 nM (inactive) | GI50 [8]: 818 nM (active) | GI50 [9]: 755 nM (active) | GI50 [10]: 875 nM (active) | GI50 [11]: 2370 nM (inactive) | GI50 [13]: 530 nM (active) | GI50 [14]: 399 nM (active) | GI50 [15]: 1700 nM (inactive) | GI50 [50]: 497 nM (active) | GI50 [16]: 1390 nM (inactive) | GI50 [17]: 743 nM (active) | GI50 [18]: 857 nM (active) | GI50 [51]: 1930 nM (inactive) | GI50 [19]: 2340 nM (inactive) | GI50 [52]: 1460 nM (inactive) | GI50 [20]: 2340 nM (inactive) | GI50 [21]: 2170 nM (inactive) | GI50 [22]: 2450 nM (inactive) | GI50 [23]: 2210 nM (inactive) | GI50 [24]: 479 nM (active) | GI50 [25]: 1090 nM (active) | GI50 [26]: 2070 nM (inactive) | GI50 [27]: 1100 nM (active) | GI50 [29]: 1690 nM (inactive) | GI50 [30]: 1500 nM (inactive) | GI50 [31]: 1920 nM (inactive) | GI50 [32]: 1810 nM | GI50 [33]: 2680 nM (inactive) | GI50 [34]: 1580 nM (inactive) | GI50 [35]: 1830 nM (inactive) | GI50 [36]: 1590 nM (inactive) | GI50 [37]: 434 nM (active) | GI50 [38]: 2580 nM (inactive) | GI50 [39]: 3300 nM (inactive) | GI50 [40]: 938 nM (active) | GI50 [41]: 2900 nM (inactive) | GI50 [42]: 2240 nM (inactive) | GI50 [58]: 2060 nM (inactive) | GI50 [43]: 2690 nM (inactive) | GI50 [54]: 1480 nM (inactive) | GI50 [55]: 782 nM (active) | GI50 [44]: 957 nM (active) | GI50 [56]: 2770 nM (inactive) | GI50 [45]: 3080 nM (inactive) | GI50 [46]: 1090 nM (active)
